PubChem BioAssay (NCI)
Values joined by “and” are separate entries in the source; they are usually repeats but may differ in a detail not shown here. Equal entries are not always repeated.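 Following 48 hours of exposure in 96-well plates, responses at five concentrations were used to interpolate endpoints linearly. The concentration for 50% growth inhibition is given as GI50. At the TGI there is no net growth.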

test system: SK-MEL-5 melanoma; experiment: NCI-60 cell line screen, 48 h

| Compound | TGI [µM] | GI50 [µM] |
| --- | --- | --- |
| S=C(Nc1ccccc1)N(/N=C/C=C/c1ccccc1)c1nnc(-c2ccccc2)c(-c2ccccc2)n1 | > 100 |  |
| CN1CCN(CCOc2ccc(-c3cnc4c(-c5ccccc5F)cnn4c3)cc2)CC1 | 3 | 1.63 |
| CN(C)N=Nc1ccc(NC=O)cc1 | > 100 |  |
| C=C1C(=O)OC2CCN3CC=C(COC(=O)C(C)(O)C4(CO4)C1C)C23 (centres undefined) | > 100 |  |

test system: SW-620 colon; experiment: NCI-60 cell line screen, 48 h

| Compound | GI50 [µM] | TGI [µM] |
| --- | --- | --- |
| OC[C@H]1C[C@](O)(c2ccc(Cl)cc2)[C@@H](c2ccc(Cl)cc2)O1 | 27.3 | > 100 |
| CC(C)N(C(=O)C12C3C4C5(C#N)C3C1(C#N)C5C42I)C(C)C (centres undefined) |  | > 66 |
| C=COCCCOc1ccccc1 |  | > 100 |
| COc1cc2nc(-c3ccc(Cl)cc3)cc(OCCCN3CCCCC3)c2cc1OC | 3.09 | > 100 |
| COc1ccc2c3c([nH]c2c1[N+](=O)[O-])C(C)=NCC3 |  | > 100 |
| C=C(c1nc2ccc(Cl)cc2[nH]c1=O)C(O)c1ccc(C(O)C(=O)c2nc3ccc(Cl)cc3[nH]c2=O)cc1 (centres undefined) |  | > 100 |
| O=c1c2sc(=S)n(-c3ccc(F)cc3)c2ncn1Cc1ccc(F)cc1F | > 100 | > 100 |
| CC(C)(C)CC(C)(C)c1cc2c(O)c(c1)Cc1cc(C(C)(C)CC(C)(C)C)cc(c1O)Cc1cc(C(C)(C)CC(C)(C)C)cc(c1O)Cc1cc(C(C)(C)CC(C)(C)C)cc(c1O)C2 |  | > 100 |
| C=CCCCCC/C=C\[C@H](O)C#CC#C/C=C/CO | 27 | 78.5 |
| Cc1cc([N+](=O)[O-])ccc1Nc1cccc(Cl)c1C |  | 62.7 |
| Cn1cc(CO)c2c1C(=O)C=C(N1CC1)C2=O | < 0.01 | > 31.6 |
| CC1=C(C(=O)Nc2ccccc2)C(c2ccccc2)C(C(=O)Nc2ccccc2)=C(C)N1 |  | > 100 |
| Cc1nn(-c2ccccc2)c2nc(N3CCOCC3)nnc12 |  | > 100 |
| CC(C)c1ccc2c(c1)CC[C@@H]1[C@@](C)(C(=O)O)CCC[C@]21C | 10.2 | 22.8 |
| CCOc1ccccc1C=C1c2ccccc2C(=O)c2ccccc21 |  | 41.4 |
| O=C(CCn1[nH]c(=O)c(Cl)c(Cl)c1=O)NO |  | > 100 |
| CC(C)=CC/C=C(/C)[C@H]1CC[C@]2(C)[C@@H]1CC[C@@H]1[C@@]3(C)CCCNC(C)(C)[C@@H]3CC[C@]12C | 1.82 | 3.68 |
| [N-]=[N+]=NC12CC3C4CC5CC3C(C1)C(C5)C4C2 |  | > 100 |
| CN(C)c1nc2ccccc2[nH]1 |  | > 100 |
| NNC(=S)N/N=C(\CC1OC(=O)c2ccccc21)c1ccccc1O (centres undefined) |  | > 100 |
| COC(=O)C1=C(O)c2cc(OC)c(OC)cc2C(c2ccc(OC)c(OC)c2)C1 (centres undefined) |  | > 100 |

| Compound | GI50 [µM] | TGI [µM] |
| --- | --- | --- |
| COC1(OC)CC2C(=O)N(Cc3ccccc3)C1C(S(=O)(=O)c1ccccc1)C2S(=O)(=O)c1ccccc1 (centres undefined) |  | 13.6 |
| Cc1cc(CC(O)c2ccc(Cl)c(Cl)c2)nc(=O)[nH]1 (centres undefined) |  | > 100 |
| CCCCCCCCCCCCCC1=NC(C)(C)CN1C(C)C | 1.58 | 2.92 |
| COC(=O)C(=Cc1cc(OC)ccc1OC)C(=O)OC |  | 55.6 |
| CC1=NNC(=O)C2CCC(=O)N12 (centres undefined) |  | > 100 |
| CC(C)c1ccccc1NC(=O)CCc1n[nH]c(=S)o1 |  | > 56 |
| CCCCC(C(=O)C(=O)NC1C2CC3CC(C2)CC1C3)C(=O)C(C)C (centres undefined) |  | > 100 |
| COc1ccc(CN2C(=O)/C(=C\C(=O)c3ccc(OCCN4CCCCC4)cc3)c3ccccc32)cc1 | 1.74 | 3.51 |
| COC(=O)c1cc2c(s1)C(=O)c1ccccc1-2 |  | > 100 |
| NC(=O)NC1C(c2ccccc2)=C1c1ccccc1 |  | 37.5 |
| Cn1c2c(c3ccccc31)C1CCCCCCC1C1C(=O)OC(=O)C21 (centres undefined) |  | > 100 |
| Cc1ccc(S(=O)(=O)N(CC(=O)O)c2ccccc2)cc1 |  | > 100 |
| COc1ccc(C(=O)C(c2ccc(OC)cc2)C2(O)C(=O)Nc3ccc([N+](=O)[O-])cc32)cc1 (centres undefined) |  | > 100 |
| O=C(/C=C/c1ccccc1O)c1ccccc1O |  | > 100 |
| Cc1nc2c(-c3cnc(N)nc3)nc(N3CCOCC3)nc2n1C(C)C |  | > 100 |
| CCCCCCNC(=O)c1cc(NCc2cc(O)ccc2O)ccc1O | 8.75 | 33.1 |
| N#CC(N)(C(=O)CCC(=O)Nc1cccc(Cl)c1)c1ccc(Cl)cc1 (centres undefined) |  | > 100 |
| S=C(Nc1ccccc1)N(/N=C/C=C/c1ccccc1)c1nnc(-c2ccccc2)c(-c2ccccc2)n1 |  | > 100 |
| CN1CCN(CCOc2ccc(-c3cnc4c(-c5ccccc5F)cnn4c3)cc2)CC1 | 1.77 | 3.26 |
| CN(C)N=Nc1ccc(NC=O)cc1 |  | > 100 |
| C=C1C(=O)OC2CCN3CC=C(COC(=O)C(C)(O)C4(CO4)C1C)C23 (centres undefined) |  | > 100 |

test system: U251 CNS; experiment: NCI-60 cell line screen, 48 h

| Compound | GI50 [µM] | TGI |
| --- | --- | --- |
| OC[C@H]1C[C@](O)(c2ccc(Cl)cc2)[C@@H](c2ccc(Cl)cc2)O1 | 24.8 | 69.5 µM |
| CC(C)N(C(=O)C12C3C4C5(C#N)C3C1(C#N)C5C42I)C(C)C (centres undefined) |  | > 100 µM |
| C=COCCCOc1ccccc1 |  | > 100 µM |
| COc1cc2nc(-c3ccc(Cl)cc3)cc(OCCCN3CCCCC3)c2cc1OC | 1.89 | > 100 µM |
| COc1ccc2c3c([nH]c2c1[N+](=O)[O-])C(C)=NCC3 |  | > 100 µM |
| C=C(c1nc2ccc(Cl)cc2[nH]c1=O)C(O)c1ccc(C(O)C(=O)c2nc3ccc(Cl)cc3[nH]c2=O)cc1 (centres undefined) |  | > 100 µM |
| O=c1c2sc(=S)n(-c3ccc(F)cc3)c2ncn1Cc1ccc(F)cc1F | > 100 | > 100 µM |
| CC(C)(C)CC(C)(C)c1cc2c(O)c(c1)Cc1cc(C(C)(C)CC(C)(C)C)cc(c1O)Cc1cc(C(C)(C)CC(C)(C)C)cc(c1O)Cc1cc(C(C)(C)CC(C)(C)C)cc(c1O)C2 |  | > 100 µM |
| C=CCCCCC/C=C\[C@H](O)C#CC#C/C=C/CO | 24.5 | 77.3 µM |
| Cc1cc([N+](=O)[O-])ccc1Nc1cccc(Cl)c1C |  | 29.8 µM |
| Cn1cc(CO)c2c1C(=O)C=C(N1CC1)C2=O | < 0.01 | 0.0726 µM |
| CC1=C(C(=O)Nc2ccccc2)C(c2ccccc2)C(C(=O)Nc2ccccc2)=C(C)N1 |  | > 100 µM |
| Cc1nn(-c2ccccc2)c2nc(N3CCOCC3)nnc12 |  | > 100 µM |
| CC(C)c1ccc2c(c1)CC[C@@H]1[C@@](C)(C(=O)O)CCC[C@]21C | 4.54 | 18.3 µM |
| CCOc1ccccc1C=C1c2ccccc2C(=O)c2ccccc21 |  | > 100 µM |
| O=C(CCn1[nH]c(=O)c(Cl)c(Cl)c1=O)NO |  | > 100 µM |
| CC(C)=CC/C=C(/C)[C@H]1CC[C@]2(C)[C@@H]1CC[C@@H]1[C@@]3(C)CCCNC(C)(C)[C@@H]3CC[C@]12C | 1.75 | 3.28 µM |
| [N-]=[N+]=NC12CC3C4CC5CC3C(C1)C(C5)C4C2 |  | > 100 µM |
| CN(C)c1nc2ccccc2[nH]1 |  | > 100 µM |
| NNC(=S)N/N=C(\CC1OC(=O)c2ccccc21)c1ccccc1O (centres undefined) |  | 56.2 µM |
| COC(=O)C1=C(O)c2cc(OC)c(OC)cc2C(c2ccc(OC)c(OC)c2)C1 (centres undefined) |  | > 100 µM |

| Compound | GI50 [µM] | TGI |
| --- | --- | --- |
| COC1(OC)CC2C(=O)N(Cc3ccccc3)C1C(S(=O)(=O)c1ccccc1)C2S(=O)(=O)c1ccccc1 (centres undefined) |  | 27.2 µM |
| Cc1cc(CC(O)c2ccc(Cl)c(Cl)c2)nc(=O)[nH]1 (centres undefined) |  | > 100 µM |
| CCCCCCCCCCCCCC1=NC(C)(C)CN1C(C)C | 1.64 | 3 µM |
| COC(=O)C(=Cc1cc(OC)ccc1OC)C(=O)OC |  | 42.9 µM |
| CC1=NNC(=O)C2CCC(=O)N12 (centres undefined) |  | > 100 µM |
| CC(C)c1ccccc1NC(=O)CCc1n[nH]c(=S)o1 |  | > 100 µM |
| CCCCC(C(=O)C(=O)NC1C2CC3CC(C2)CC1C3)C(=O)C(C)C (centres undefined) |  | > 100 µM |
| COc1ccc(CN2C(=O)/C(=C\C(=O)c3ccc(OCCN4CCCCC4)cc3)c3ccccc32)cc1 | 2.24 | 5.15 µM |
| COC(=O)c1cc2c(s1)C(=O)c1ccccc1-2 |  | > 100 µM |
| NC(=O)NC1C(c2ccccc2)=C1c1ccccc1 |  | 32.7 µM |
| Cn1c2c(c3ccccc31)C1CCCCCCC1C1C(=O)OC(=O)C21 (centres undefined) |  | > 100 µM |
| Cc1ccc(S(=O)(=O)N(CC(=O)O)c2ccccc2)cc1 |  | > 100 µM |
| COc1ccc(C(=O)C(c2ccc(OC)cc2)C2(O)C(=O)Nc3ccc([N+](=O)[O-])cc32)cc1 (centres undefined) |  | > 100 µM |
| O=C(/C=C/c1ccccc1O)c1ccccc1O |  | > 100 µM |
| Cc1nc2c(-c3cnc(N)nc3)nc(N3CCOCC3)nc2n1C(C)C |  | > 10 µM and 37.7 µM |
| CCCCCCNC(=O)c1cc(NCc2cc(O)ccc2O)ccc1O | 12.1 | 28.5 µM |
| N#CC(N)(C(=O)CCC(=O)Nc1cccc(Cl)c1)c1ccc(Cl)cc1 (centres undefined) |  | > 100 µM |
| S=C(Nc1ccccc1)N(/N=C/C=C/c1ccccc1)c1nnc(-c2ccccc2)c(-c2ccccc2)n1 |  | > 100 µM |
| CN(C)N=Nc1ccc(NC=O)cc1 |  | > 100 µM |
| C=C1C(=O)OC2CCN3CC=C(COC(=O)C(C)(O)C4(CO4)C1C)C23 (centres undefined) |  | > 100 µM |
